Values joined by “and” are separate entries in the source; they are usually repeats but may differ in a detail not shown here. Equal entries are not always repeated. Inconclusive results and toxic doses are left out. No stated cut-off is given here; in the data, active means T/C of 150% or more; inactive means T/C below 125%.
Test system: L1210 leukemia ip in BDF1 mice, survival T/C
Assay: NCI In Vivo Anticancer Drug Screen. Data for tumor model L1210 Leukemia (intraperitoneal) in B6D2F1 (BDF1) mice
Conditions: endpoint: mean survival time, higher = longer survival
Method in brief: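 Mice bearing the transplanted tumor received compound or vehicle. Survival of the treated group was divided by that of the vehicle-treated control group to give the ratio.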

[1] = dose: 50.0 mg/kg/injection, schedule: Q01DX001 (ip), vehicle: saline
[2] = dose: 100.0 mg/kg/injection, schedule: Q01DX001 (ip), vehicle: carboxymethylcellulose (CMC)
[3] = dose: 200.0 mg/kg/injection, schedule: Q01DX001 (ip), vehicle: carboxymethylcellulose (CMC)
[4] = dose: 400.0 mg/kg/injection, schedule: Q01DX001 (ip), vehicle: carboxymethylcellulose (CMC)
[5] = dose: 100.0 mg/kg/injection, schedule: Q04DX003 (ip), vehicle: Klucel (hydroxypropylcellulose) (HPC)
[6] = dose: 200.0 mg/kg/injection, schedule: Q04DX003 (ip), vehicle: Klucel (hydroxypropylcellulose) (HPC)
[7] = dose: 100.0 mg/kg/injection, schedule: Q04DX002 (ip), vehicle: Klucel (hydroxypropylcellulose) (HPC)
[8] = dose: 100.0 mg/kg/injection, schedule: Q04DX003 (ip), vehicle: saline with Tween-80
[9] = dose: 200.0 mg/kg/injection, schedule: Q04DX002 (ip), vehicle: Klucel (hydroxypropylcellulose) (HPC)
[10] = dose: 200.0 mg/kg/injection, schedule: Q04DX003 (ip), vehicle: saline with Tween-80
[11] = dose: 400.0 mg/kg/injection, schedule: Q04DX002 (ip), vehicle: Klucel (hydroxypropylcellulose) (HPC)
[12] = dose: 400.0 mg/kg/injection, schedule: Q04DX003 (ip), vehicle: saline with Tween-80
[13] = dose: 100.0 mg/kg/injection, schedule: Q01DX001 (ip), vehicle: saline
[14] = dose: 200.0 mg/kg/injection, schedule: Q01DX001 (ip), vehicle: saline
[15] = dose: 400.0 mg/kg/injection, schedule: Q01DX001 (ip), vehicle: saline

Measured: T/C

NC(=O)c1cc(NC(=O)c2ccc(C(=O)Nc3cc(C(N)=O)cc(C4=NCCN4)c3)cc2)cc(C2=NCCN2)c1
inactive: dose: 4.0 mg/kg/injection, schedule: Q01DX015 (ip), vehicle: methylcellulose (MC) 103 % of control | dose: 8.0 mg/kg/injection, schedule: Q01DX015 (ip), vehicle: methylcellulose (MC) 92 % of control | dose: 16.0 mg/kg/injection, schedule: Q01DX015 (ip), vehicle: methylcellulose (MC) 105 % of control | dose: 62.5 mg/kg/injection, schedule: Q01DX015 (ip), vehicle: methylcellulose (MC) 116 % of control | dose: 125.0 mg/kg/injection, schedule: Q01DX015 (ip), vehicle: methylcellulose (MC) 117 % of control

CN(C(=O)CCCc1ccc(N(CCCl)CCCl)cc1)c1ccccc1
inactive: dose: 2.0 mg/kg/injection, schedule: Q12HX018 (ip), vehicle: Klucel (hydroxypropylcellulose) (HPC) 100 % of control | dose: 4.0 mg/kg/injection, schedule: Q12HX018 (ip), vehicle: Klucel (hydroxypropylcellulose) (HPC) 96 % of control | dose: 8.0 mg/kg/injection, schedule: Q12HX018 (ip), vehicle: Klucel (hydroxypropylcellulose) (HPC) 107 % of control | dose: 8.0 mg/kg/injection, schedule: Q12HX018 (ip), vehicle: other 110 % of control | dose: 10.0 mg/kg/injection, schedule: Q12HX018 (ip), vehicle: other 101 % of control | dose: 12.0 mg/kg/injection, schedule: Q12HX018 (ip), vehicle: other 100 % of control

O=C(Nc1nccs1)c1cc2ccccc2cc1O
inactive: dose: 100.0 mg/kg/injection, schedule: Q04DX002 (ip), vehicle: saline with Tween-80 97 % of control | dose: 200.0 mg/kg/injection, schedule: Q04DX002 (ip), vehicle: saline with Tween-80 87 % of control | dose: 400.0 mg/kg/injection, schedule: Q04DX002 (ip), vehicle: saline with Tween-80 87 % of control

CC1(C)CCCC(C)(C)N1
inactive: [1] 94 % of control

OCC1OC(CO)(OC2CC3C(O)CC(O)CC3OC2c2cc(O)c(O)c(O)c2)C(O)C1O (centres undefined)
inactive: [2] 103 % of control | [3] 93 % of control | [4] 92 % of control

CC(C)C(NC(=O)CI)C(=O)Nc1ccc(C(=O)O)c(O)c1 (centres undefined)
inactive: [5] 108 % of control | [6] 94 % of control

N#CCC(CC#N)C(c1cccc2ccccc12)c1cccc2ccccc12
inactive: dose: 75.0 mg/kg/injection, schedule: Q04DX002 (ip), vehicle: Klucel (hydroxypropylcellulose) (HPC) 94 % of control | dose: 150.0 mg/kg/injection, schedule: Q04DX002 (ip), vehicle: Klucel (hydroxypropylcellulose) (HPC) 101 % of control | dose: 300.0 mg/kg/injection, schedule: Q04DX002 (ip), vehicle: Klucel (hydroxypropylcellulose) (HPC) 90 % of control

CCCCCCCCC(CCCCCCCC)CCc1ccccc1
inactive: dose: 100.0 mg/kg/injection, schedule: Q01DX001 (ip), vehicle: saline + alcohol 101 % of control | dose: 200.0 mg/kg/injection, schedule: Q01DX001 (ip), vehicle: saline + alcohol 100 % of control | dose: 400.0 mg/kg/injection, schedule: Q01DX001 (ip), vehicle: saline + alcohol 97 % of control

Nc1nc(N)c2nc3c(nc2n1)C(=O)N(c1ccc(C(=O)O)cc1)C3
inactive: dose: 12.5 mg/kg/injection, schedule: Q01DX001 (ip), vehicle: saline 102 % of control | dose: 25.0 mg/kg/injection, schedule: Q01DX001 (ip), vehicle: saline 91 % of control | [1] 102 % of control | dose: 100.0 mg/kg/injection, schedule: Q01DX009 (ip), vehicle: saline 90 % of control

O=C(O)C1C2CCCCC2=C2CCCCC2C1C(=O)O (centres undefined)
inactive: [7] 90 % of control | [8] 93 % of control | [9] 98 % of control | [10] 94 % of control | [11] 93 % of control | [12] 91 % of control

NC(Cc1cc(O)c(O)c(S(=O)(=O)c2ccccc2)c1)C(=O)O (centres undefined)
inactive: dose: 87.5 mg/kg/injection, schedule: Q01DX009 (ip), vehicle: saline 98 % of control | dose: 175.0 mg/kg/injection, schedule: Q01DX009 (ip), vehicle: saline 96 % of control | dose: 350.0 mg/kg/injection, schedule: Q01DX009 (ip), vehicle: saline 107 % of control

NC(Cc1ccc(O)cc1)C(=O)CCl (centres undefined)
inactive: dose: 25.0 mg/kg/injection, schedule: Q04DX002 (ip), vehicle: saline 110 % of control | dose: 50.0 mg/kg/injection, schedule: Q04DX002 (ip), vehicle: saline 105 % of control

CCCCCCCc1nc(N)nc(N2CCOCC2)n1
inactive: [7] 89 % of control | [9] 100 % of control | [11] 110 % of control

C1=C[N]2c3c4c(ccc3=C1)=CC=C[N]4[Ga]2[c]1ccccc1
inactive: dose: 25.0 mg/kg/injection, schedule: Q04DX003 (ip), vehicle: saline with Tween-80 88 % of control | dose: 50.0 mg/kg/injection, schedule: Q04DX003 (ip), vehicle: saline with Tween-80 97 % of control | [8] 101 % of control

CC(O)c1ccc2c(c1)Cc1ccccc1-2 (centres undefined)
inactive: dose: 50.0 mg/kg/injection, schedule: Q01DX001 (ip), vehicle: carboxymethylcellulose (CMC) 104 % of control | [2] 91 % of control | [3] 91 % of control | [4] 91 % of control

COc1cc(NC=O)c2ncccc2c1
inactive: dose: 50.0 mg/kg/injection, schedule: Q04DX003 (ip), vehicle: Klucel (hydroxypropylcellulose) (HPC) 97 % of control | [5] 100 % of control | [6] 88 % of control

CC(=O)OCC1OC(n2nnc(CBr)c2CBr)C(OC(C)=O)C(OC(C)=O)C1OC(C)=O (centres undefined)
inactive: dose: 12.5 mg/kg/injection, schedule: Q01DX005 (ip), vehicle: other 94 % of control | dose: 25.0 mg/kg/injection, schedule: Q01DX005 (ip), vehicle: other 102 % of control | dose: 50.0 mg/kg/injection, schedule: Q01DX005 (ip), vehicle: other 97 % of control

NC(=O)c1cc(O)c(O)c(O)c1
inactive: [13] 102 % of control | [14] 102 % of control | [15] 102 % of control

S=C(S)Nc1ccccc1
inactive: dose: 25.0 mg/kg/injection, schedule: Q01DX001 (ip), vehicle: Klucel (hydroxypropylcellulose) (HPC) 95 % of control | dose: 50.0 mg/kg/injection, schedule: Q01DX001 (ip), vehicle: Klucel (hydroxypropylcellulose) (HPC) 92 % of control | dose: 100.0 mg/kg/injection, schedule: Q01DX001 (ip), vehicle: Klucel (hydroxypropylcellulose) (HPC) 94 % of control and 95 % of control

CC12CC(c3ccoc3)OC(=O)C1CCC1(C)C2C2C=CC1(O)C(=O)O2 (centres undefined)
inactive: [13] 104 % of control | [14] 98 % of control | [15] 104 % of control

CN(N=O)C(=O)NCCSc1ncnc2nc[nH]c12
inactive: dose: 6.25 mg/kg/injection, schedule: Q01DX Z (ip), vehicle: carboxymethylcellulose (CMC) 103 % of control | dose: 12.5 mg/kg/injection, schedule: Q01DX Z (ip), vehicle: carboxymethylcellulose (CMC) 95 % of control | dose: 25.0 mg/kg/injection, schedule: Q01DX Z (ip), vehicle: carboxymethylcellulose (CMC) 107 % of control | dose: 50.0 mg/kg/injection, schedule: Q01DX Z (ip), vehicle: carboxymethylcellulose (CMC) 119 % of control

O=C(NNC(=S)Nc1ccc(S(=O)(=O)N2CCCCC2)cc1)c1ccncc1
inactive: dose: 100.0 mg/kg/injection, schedule: Q01DX009 (ip), vehicle: Klucel (hydroxypropylcellulose) (HPC) 92 % of control | dose: 200.0 mg/kg/injection, schedule: Q01DX009 (ip), vehicle: Klucel (hydroxypropylcellulose) (HPC) 92 % of control | dose: 400.0 mg/kg/injection, schedule: Q01DX009 (ip), vehicle: Klucel (hydroxypropylcellulose) (HPC) 91 % of control

NCC(=O)O
inactive: [2] 100 % of control | [3] 92 % of control | [4] 100 % of control

CSc1nc2cc(C)c(C)cc2[nH]1
inactive: [8] 107 % of control | [10] 94 % of control | [12] 94 % of control

NC(CCl)=NCCCN1CCCCC1
inactive: dose: 12.5 mg/kg/injection, schedule: Q01DX009 (ip), vehicle: Klucel (hydroxypropylcellulose) (HPC) 104 % of control | dose: 12.5 mg/kg/injection, schedule: Q04DX002 (ip), vehicle: Klucel (hydroxypropylcellulose) (HPC) 107 % of control | dose: 25.0 mg/kg/injection, schedule: Q01DX009 (ip), vehicle: Klucel (hydroxypropylcellulose) (HPC) 96 % of control | dose: 25.0 mg/kg/injection, schedule: Q04DX002 (ip), vehicle: Klucel (hydroxypropylcellulose) (HPC) 96 % of control | dose: 50.0 mg/kg/injection, schedule: Q04DX002 (ip), vehicle: Klucel (hydroxypropylcellulose) (HPC) 105 % of control

— PubChem BioAssay AID248 (DTP/NCI, 2004)
